Test results as given in patent US9908897B2, “Spirocyclic derivatives” (CHRONOS THERAPEUTICS LIMITED, priority 2014, dated 2018).

Assays:
[1] = biological target: human dopamine transporter (DAT) (Homo sapiens (Human), UniProt Q01959); assay: Scintillation Proximity Assay (SPA) competition binding, human DAT; settings: recombinant hDAT-CHO membranes, [3H]WIN-35,428
Text: (§1) Measure of Affinity to the Human Transporters DAT, NET and SERT
In the context of the present invention pKi values (corresponding to the antilogarithm of Ki) are used instead of Ki; pKi are only estimated to be accurate to about 0.3 log unit.
(§2) Scintillation Proximity Assay (SPA) for Human DAT, NET and SERT Binding
(§3) Chinese Hamster Ovary (CHO) cells stably expressing either human DAT (hDAT-CHO) or human NET (hNET-CHO) or human SERT (hSERT-CHO) are used for the membrane preparations for radioligand binding assays using Scintillation proximity Assay (SPA) technique. Each cell line is cultured independently in F-12K Nutrient Mixture containing 10% of Fetal Bovine Serum (FBS) supplemented with 450 μg/ml G-418. When cells are at 70-80% of confluence 3 mM Na Butyrate was added to the cell culture medium. After 24 h of incubation, the culture medium was removed and the cells detached with Versene (DAT) or by scraping (NET and SERT). Cell suspension is centrifuged at 41,000 g for 10 minutes at 4° C. The resultant pellets are re-suspended in 15 volumes of Ice-cold buffer (20 mM HEPES, 145 mM NaCl, 5 mM KCl, pH7.3), homogenized using an Ultra Turrax homogeniser and centrifuged as before. The resultant membrane pellets are re-suspended in up to 15 volume of ice-cold buffer, incubated for 20 minutes at 37-C and centrifuged as before at 41,000 g. The final membrane pellets are re-suspended into 5-10 volumes of ice-cold buffer, dispensed into 0.5 ml aliquots and stored at −80° C. until use. Protein concentration for each preparation is determined using Bio-Rad Protein Assay kit.
(§4) The affinity of the compounds of the invention to the human DAT or NET or SERT transporters is assessed by using the [^3H]WIN-35,428 or [^3H]nisoxetine or [^3H]citalopram binding assays in recombinant human DAT, NET and SERT membranes with the SPA technology. The final assay volume is 50 μL in 384 well plates.
(§5) Briefly, 0.5 μL of test compound in neat DMSO or 0.5 μL of DMSO for total binding (TB) or 0.5 μL of indatraline 1 mM (10 μM final concentration) for non specific binding (NSB) are added to the assay plate. 50 μL of the SPA mixture is added to each well, containing: 30 μg/mL or 10 μg/mL or 25 μg/mL DAT, NET, SERT membranes, respectively; 5 nM [^3H]WIN-35,428 or 5 nM [^3H]nisoxetine or 1 nM [^3H]citalopram, for DAT, NET, SERT assay, respectively; 2.5 mg/mL or 1 mg/mL or 4 mg/mL WGA-PVT SPA beads (PerkinElmer RPNQ0001, for DAT, NET, SERT assay, respectively. All components are added to Assay Buffer (20 mM HEPES pH 7.4, 145 mM NaCl, 5 mM KCl, 0.01% Pluronic F-127). 0.02% BSA was used for DAT binding only. Plates are sealed with Topseal A and centrifuged 1 min, 800 rpm. Plates are loaded into a 1450 Microbeta TriLux (Perkin-Elmer) plate reader and the radioactivity counted after at least 4 hrs or overnight incubation at room temperature. Curve fitting and IC50 estimations are performed using a four parameter model in XLfit (IDBS, Guilford, UK) for Microdoft Excel (Microsoft, Redmond, Wash.).

[2] = biological target: human norepinephrine transporter (NET) (Homo sapiens (Human), UniProt P23975); assay: Scintillation Proximity Assay (SPA) competition binding, human NET; settings: recombinant hNET-CHO membranes, [3H]nisoxetine
Text: as §1
(§6) Affinity is expressed in terms of inhibition constant (Ki) of the compounds of the invention for DAT, NET and SERT, and it is typically calculated from the IC50 values obtained in competition experiments using Cheng and Prusoff equation (Cheng and Prusoff, Biochem. Pharmacol. 22:3099, 1973). In the context of the present invention pKi values (corresponding to the antilogarithm of Ki) are used instead of Ki; pKi are only estimated to be accurate to about 0.3 log unit.
as §2, §3, §4, §5

[3] = biological target: human serotonin transporter (SERT) (Homo sapiens (Human), UniProt P31645); assay: Scintillation Proximity Assay (SPA) competition binding, human SERT; settings: recombinant hSERT-CHO membranes, [3H]citalopram
Text: as §1, §6, §2, §3, §4, §5

Sequence of human dopamine transporter (DAT) (Q01959 whole entry): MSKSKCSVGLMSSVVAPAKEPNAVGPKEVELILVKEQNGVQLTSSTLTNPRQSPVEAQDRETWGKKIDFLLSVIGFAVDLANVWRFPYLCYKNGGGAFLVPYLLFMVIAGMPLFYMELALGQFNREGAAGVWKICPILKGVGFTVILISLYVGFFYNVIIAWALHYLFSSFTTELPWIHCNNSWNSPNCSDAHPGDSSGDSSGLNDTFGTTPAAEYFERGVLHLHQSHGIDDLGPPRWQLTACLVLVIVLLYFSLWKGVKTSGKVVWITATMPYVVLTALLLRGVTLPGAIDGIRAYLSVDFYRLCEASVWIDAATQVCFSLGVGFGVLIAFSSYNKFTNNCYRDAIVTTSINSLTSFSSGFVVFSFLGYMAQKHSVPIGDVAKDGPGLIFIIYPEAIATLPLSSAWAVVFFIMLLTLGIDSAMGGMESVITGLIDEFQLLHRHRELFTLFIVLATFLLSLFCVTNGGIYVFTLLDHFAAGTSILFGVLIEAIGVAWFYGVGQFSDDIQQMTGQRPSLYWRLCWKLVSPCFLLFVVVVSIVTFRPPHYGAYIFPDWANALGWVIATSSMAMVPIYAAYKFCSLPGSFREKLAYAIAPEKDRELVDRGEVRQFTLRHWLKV
Sequence of human serotonin transporter (SERT) (P31645 whole entry): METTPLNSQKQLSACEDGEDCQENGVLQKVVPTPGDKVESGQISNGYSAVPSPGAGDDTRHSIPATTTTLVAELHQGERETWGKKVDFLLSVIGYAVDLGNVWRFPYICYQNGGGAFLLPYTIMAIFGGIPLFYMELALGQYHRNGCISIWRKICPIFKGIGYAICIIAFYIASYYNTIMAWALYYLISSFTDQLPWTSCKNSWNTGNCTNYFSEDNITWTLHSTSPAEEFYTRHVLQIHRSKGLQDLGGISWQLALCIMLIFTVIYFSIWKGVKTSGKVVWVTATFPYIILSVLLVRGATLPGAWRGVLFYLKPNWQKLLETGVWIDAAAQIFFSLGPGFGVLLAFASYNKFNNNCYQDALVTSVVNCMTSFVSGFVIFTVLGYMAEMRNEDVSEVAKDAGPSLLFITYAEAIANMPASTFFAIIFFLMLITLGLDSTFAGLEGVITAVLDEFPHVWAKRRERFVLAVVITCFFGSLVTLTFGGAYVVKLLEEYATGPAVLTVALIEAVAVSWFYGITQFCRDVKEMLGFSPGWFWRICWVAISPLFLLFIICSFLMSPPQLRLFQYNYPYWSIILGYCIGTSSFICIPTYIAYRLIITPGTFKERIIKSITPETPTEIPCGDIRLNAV
Sequence of human norepinephrine transporter (NET) (P23975 whole entry): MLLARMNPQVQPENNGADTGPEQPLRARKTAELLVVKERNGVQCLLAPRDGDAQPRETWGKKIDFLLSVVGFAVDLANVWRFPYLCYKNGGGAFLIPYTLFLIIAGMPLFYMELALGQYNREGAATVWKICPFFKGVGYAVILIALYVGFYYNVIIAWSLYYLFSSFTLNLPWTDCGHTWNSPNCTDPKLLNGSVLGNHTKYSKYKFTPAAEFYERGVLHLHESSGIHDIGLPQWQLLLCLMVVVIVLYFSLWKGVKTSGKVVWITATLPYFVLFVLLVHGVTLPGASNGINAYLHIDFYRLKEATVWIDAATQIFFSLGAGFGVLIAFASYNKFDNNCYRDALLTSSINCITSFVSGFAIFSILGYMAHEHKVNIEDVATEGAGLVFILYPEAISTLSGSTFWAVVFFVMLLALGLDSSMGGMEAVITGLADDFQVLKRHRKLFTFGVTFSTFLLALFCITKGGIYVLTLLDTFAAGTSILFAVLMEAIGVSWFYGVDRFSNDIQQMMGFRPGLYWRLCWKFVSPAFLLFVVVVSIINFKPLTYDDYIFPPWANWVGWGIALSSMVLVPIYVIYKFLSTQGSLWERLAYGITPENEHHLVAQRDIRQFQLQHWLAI

| Compound | pIC50 DAT [1] | pIC50 NET [2] | pIC50 SERT [3] | IC50 [3] |
| --- | --- | --- | --- | --- |
| CN1CCCNCC12CCN(c1nc(Oc3cccc(F)c3)cc(C(F)(F)F)n1)CC2 [Example 77, 3-[4-(3-fluorophenoxy)-6-(trifluoromethyl)pyrimidin-2-yl]-7-methyl-3,7,11-triazaspiro[5.6]dodecane] | 8.08 | 6.33 | 5.30 |  |
| Fc1cccc(Oc2ccc(F)c(N3CCC4(CC3)CNCCO4)c2F)c1 [Example 23, 9-[2,6-difluoro-3-(3-fluorophenoxy)phenyl]-1-oxa-4,9-diazaspiro[5.5]undecane] | 8.32 | 6.91 | 6.16 |  |
| Cc1cnc(N2CCC3(CC2)CNCCO3)nc1Oc1cccc(F)c1.Cl [Example 54, 9-[4-(3-fluorophenoxy)-5-methylpyrimidin-2-yl]-1-oxa-4,9-diazaspiro[5.5]undecane hydrochloride] | 6.96 | 5.34 | 5.00 |  |
| O=C1CNCC2(CCN(c3nc(Oc4cccc(F)c4)cc(C(F)(F)F)n3)CC2)N1 [Example 73, 9-[4-(3-fluorophenoxy)-6-(trifluoromethyl)pyrimidin-2-yl]-1,4,9-triazaspiro[5.5]undecan-2-one] | 6.32 | 4.82 |  | > 100 µM |
| Fc1cccc(Oc2cc(C(F)(F)F)nc(N3CC4(CNCCO4)C3)n2)c1 [Example 102, 2-[4-(3-fluorophenoxy)-6-(trifluoromethyl)pyrimidin-2-yl]-5-oxa-2,8-diazaspiro[3.5]nonane] | 8.00 | 6.22 | 4.00 |  |
| Cc1c(C#N)cc(N2CCC3(CC2)CNCCO3)cc1Oc1cccc(F)c1.Cl [Example 35, 3-(3-fluorophenoxy)-2-methyl-5-{1-oxa-4,9-diazaspiro[5.5]undecan-9-yl}benzonitrile hydrochloride] | 8.16 | 6.52 | 8.45 |  |
| Cl.N#Cc1c(C(F)(F)F)cc(N2CCC3(CC2)CNCCO3)nc1Oc1cccc(F)c1 [Example 39, 2-(3-fluorophenoxy)-6-{1-oxa-4,9-diazaspiro[5.5]undecan-9-yl}-4-(trifluoromethyl)pyridine-3-carbonitrile hydrochloride] | 6.68 | 5.78 | 4.50 |  |
| Fc1cccc(Oc2cc(C(F)(F)F)nc(N3CCC4(CC3)CNCCN4)n2)c1 [Example 75, 9-[4-(3-fluorophenoxy)-6-(trifluoromethyl)pyrimidin-2-yl]-1,4,9-triazaspiro[5.5]undecane] | 8.88 | 6.54 | 5.18 |  |
| Cl.Fc1cccc(Oc2cc(C(F)(F)F)nc(N3CCC4(CC3)COCCN4)n2)c1 [Example 78, 9-[4-(3-fluorophenoxy)-6-(trifluoromethyl)pyrimidin-2-yl]-4-oxa-1,9-diazaspiro[5.5]undecane hydrochloride] | 7.94 | 7.32 | 5.17 |  |
| Cc1cc(Oc2cc(F)cc(F)c2)nc(N2CCC3(CC2)CNCCO3)n1.Cl [Example 50, 9-[4-(3,5-difluorophenoxy)-6-methylpyrimidin-2-yl]-1-oxa-4,9-diazaspiro[5.5]undecane hydrochloride] | 8.24 | 6.96 | 5.11 |  |
| Cc1ccc(Oc2ccccc2)cc1N1CCC2(CC1)CNCCO2 [Example 29, 9-(2-methyl-5-phenoxyphenyl)-1-oxa-4,9-diazaspiro[5.5]undecane] | 7.44 | 6.01 | 5.80 |  |
| CSc1cc(Oc2cccc(F)c2)nc(N2CCC3(CC2)CNCCO3)n1.Cl [Example 63, 9-[4-(3-fluorophenoxy)-6-(methylsulfanyl)pyrimidin-2-yl]-1-oxa-4,9-diazaspiro[5.5]undecane hydrochloride] | 8.07 | 6.34 | 5.15 |  |
| Fc1cccc(Oc2cncc(N3CCC4(CC3)CNCCO4)c2)c1 [Example 31, 9-[5-(3-fluorophenoxy)pyridin-3-yl]-1-oxa-4,9-diazaspiro[5.5]undecane] | 7.43 | 5.96 | 5.71 |  |
| c1ccc(Oc2cccc(N3CCC4(CC3)CNCCO4)c2)cc1 [Example 6, 9-(3-phenoxyphenyl)-1-oxa-4,9-diazaspiro[5.5]undecane] | 7.41 | 5.83 | 6.12 |  |
| Fc1cccc(Oc2cc(N3CCC4(CC3)CNCCO4)cc(F)c2F)c1 [Example 15, 9-[3,4-difluoro-5-(3-fluorophenoxy)phenyl]-1-oxa-4,9-diazaspiro[5.5]undecane] | 7.05 | 6.02 | 7.03 |  |
| c1ccc(Cc2cccc(N3CCC4(CC3)CNCCO4)c2)cc1 [Example 33, 9-(3-benzylphenyl)-1-oxa-4,9-diazaspiro[5.5]undecane] | 6.42 | 5.54 | 5.73 |  |
| Fc1cccc(Oc2cc(F)c(F)cc2N2CCCC3(CCNCC3)C2)c1 [Example 80, 2-[4,5-difluoro-2-(3-fluorophenoxy)phenyl]-2,9-diazaspiro[5.5]undecane] | 6.64 | 5.84 | 6.49 |  |
| Cc1cc(Oc2cccnc2)nc(N2CCC3(CC2)CNCCO3)n1.Cl [Example 53, 9-[4-methyl-6-(pyridin-3-yloxy)pyrimidin-2-yl]-1-oxa-4,9-diazaspiro[5.5]undecane hydrochloride] | 6.63 | 5.21 | 4.56 |  |
